In ChEMBL document CHEMBL1201862, “PubChem BioAssay data set” (2004):
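Assay format: 96-well plates, 48-hour exposure. The concentration for 50% growth inhibition is given as GI50.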 Active and inactive are the calls of the source. Cut-off read from the data, not from the text of the source: active = GI50 up to about 1.1 µM and inactive = higher.

Key:
Assay in all cases: NCI-60 cell line screen, 48 h
A549 = test system: A549
EKVX = test system: EKVX
SF-268 = test system: SF-268
TK-10 = test system: TK-10
Malme-3M = test system: Malme-3M
NCI/ADR-RES = test system: NCI/ADR-RES
A498 = test system: A498
OVCAR-8 = test system: OVCAR-8
786-0 = test system: 786-0
HL-60 = test system: HL-60
BT-549 = test system: BT-549
HT-29 = test system: HT-29
KM12 = test system: KM12
UACC-62 = test system: UACC-62
LOX IMVI = test system: LOX IMVI
SF-295 = test system: SF-295
ACHN = test system: ACHN
NCI-H226 = test system: NCI-H226
MDA-MB-231 = test system: MDA-MB-231
MDA-N = test system: MDA-N

Measured: GI50

N#Cc1c2c(c(Nc3ccc(Cl)cc3)n3c1nc1ccccc13)CCCC2
inactive: A549 43 µM | EKVX 48.3 µM | SF-268 44 µM | TK-10 53.1 µM | Malme-3M > 67.6 µM | NCI/ADR-RES 44.1 µM | A498 > 94.6 µM | OVCAR-8 37.6 µM | 786-0 26.9 µM | HL-60 7.03 µM | BT-549 > 70.1 µM | HT-29 18.5 µM | KM12 20.3 µM | UACC-62 > 100 µM | LOX IMVI > 63.5 µM | SF-295 28.5 µM | ACHN 18.6 µM | NCI-H226 > 64.3 µM | MDA-MB-231 > 86.9 µM

O=c1[nH]c(=O)n(C2CC(O)C(CO)O2)cc1OC/C=C/Cc1ccccc1 (stereo unspecified)
inactive: A549 > 100 µM | EKVX > 100 µM | SF-268 > 100 µM | TK-10 > 100 µM | Malme-3M > 100 µM | NCI/ADR-RES > 100 µM | OVCAR-8 > 100 µM | 786-0 > 100 µM | HL-60 > 100 µM | BT-549 > 100 µM | HT-29 > 100 µM | KM12 > 100 µM | UACC-62 > 100 µM | LOX IMVI > 100 µM | SF-295 > 100 µM | ACHN > 100 µM | NCI-H226 > 100 µM | MDA-MB-231 > 100 µM

COc1cc(C2=NNC(=O)c3ccccc3N2c2nc(-c3cccs3)nc3ccc(Br)cc23)cc(OC)c1OC
inactive: A549 18.6 µM | EKVX 13 µM | SF-268 8.91 µM | TK-10 23.2 µM | Malme-3M 17.3 µM | NCI/ADR-RES 4.91 µM | A498 34.8 µM | OVCAR-8 4.62 µM | 786-0 6.95 µM | BT-549 32.8 µM | HT-29 7.73 µM | KM12 4.8 µM | UACC-62 12.4 µM | SF-295 5.06 µM | ACHN 7.11 µM | NCI-H226 36.1 µM | MDA-MB-231 17.9 µM

COc1ccc(/C(C)=C2\CCCN(Cc3ccccc3)C2)cc1
inactive: A549 32 µM | EKVX 37.1 µM | SF-268 17.4 µM | TK-10 38.8 µM | Malme-3M 19.2 µM | NCI/ADR-RES 22.6 µM | A498 33.7 µM | OVCAR-8 18.3 µM | 786-0 19.2 µM | HL-60 23.2 µM | HT-29 18.9 µM | MDA-N 18.8 µM | KM12 17 µM | UACC-62 19.8 µM | LOX IMVI 16.7 µM | SF-295 16.5 µM | ACHN 28.1 µM | NCI-H226 21.5 µM | MDA-MB-231 21.4 µM

O=C1CC(c2ccccc2)[S+]([O-])c2ccccc2N1 (stereo unspecified)
inactive: A549 > 100 µM | EKVX > 100 µM | SF-268 > 100 µM | TK-10 > 100 µM | Malme-3M > 100 µM | NCI/ADR-RES > 100 µM | OVCAR-8 61.7 µM | 786-0 > 100 µM | HL-60 > 100 µM | BT-549 > 100 µM | HT-29 > 100 µM | KM12 > 100 µM | UACC-62 > 100 µM | LOX IMVI > 100 µM | SF-295 > 10 µM | ACHN > 100 µM | NCI-H226 > 100 µM | MDA-MB-231 > 100 µM
